Data on 37 compounds can be found in patent publication US11001564B2, “Substituted chromane-8-carboxamide compounds and analogues thereof, and methods using same” (priority 2016, dated 2021).

SMILES strings stand for the structures. Counter-ions that a name gives are not always drawn.

A word on the EC50: it is the midpoint of the concentration-response curve.

One assay relates to HBV rcDNA in HepDE19 cells. Kind of assay: HepDE19 assay with bDNA quantitation of HBV rcDNA. In kind it is cell-based, hepatitis B virus (HBV). Conditions: HepDE19 cells, 7 day incubation, rcDNA by Quantigene 2.0 bDNA assay; read-out: DE-19 bDNA EC50. The method in brief:
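HepG2-derived HepDE19 cells, switched to Tet-free medium, were exposed 7 days at 37 °C to compound (8-point ½-log series from 25 μM, 0.5% DMSO). HBV rcDNA measured by bDNA assay with HBV-specific probes; EC50/EC90 by 4-parameter fit. CC50 from CellTiter-Glo ATP on replicate plates after 4 days.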
With `CN1CCC(NC(=O)OCc2ccccn2)c2cccc(C(=O)Nc3ccc(F)c(F)c3)c21` (single isomer, unassigned) [Compound 180, Pyridin-2-ylmethyl (8-((3,4-difluorophenyl)carbamoyl)-1-methyl-1,2,3,4-tetrahydroquinolin-4-yl)carbamate], the EC50 was found to be 15 µM.
On to `CN1CCC(NC(=O)OCc2ccccn2)c2cccc(C(=O)Nc3ccc(F)c(F)c3)c21` (single isomer, unassigned) [Compound 181, Pyridin-2-ylmethyl (8-((3,4-difluorophenyl)carbamoyl)-1-methyl-1,2,3,4-tetrahydroquinolin-4-yl)carbamate], for which the EC50 is 2.5 µM.
For the compound `CN1CCC(NC(=O)OCc2ccccn2)c2cccc(C(=O)Nc3ccc(F)c(Cl)c3)c21` (single isomer, unassigned) [Compound 182, Pyridin-2-ylmethyl (8-((3-chloro-4-fluorophenyl)carbamoyl)-1-methyl-1,2,3,4-tetrahydroquinolin-4-yl)carbamate], the EC50 was found to be 12 µM.

Still in this assay, the particulars now being: Hepatitis B virus, HepDE19, 168 h, HepDE19 cells, 7 day incubation, rcDNA by Quantigene 2.0 bDNA assay; read-out: DE-19 bDNA EC50.
With `O=C(Nc1ccc(F)c(F)c1)c1cccc2c1OCC[C@H]2O` [Compound 4, (R)-N-(3,4-difluorophenyl)-4-hydroxychromane-8-carboxamide], the EC50 came out at 2.2 µM.
For the compound `Cc1cccc(COC(=O)N[C@H]2CCOc3c(C(=O)Nc4ccc(F)c(F)c4)cccc32)n1` [Compound 53, (6-Methylpyridin-2-yl)methyl (S)-(8-((3,4-difluorophenyl)carbamoyl)chroman-4-yl)carbamate], the EC50 was 4.4 µM.
For the compound `O=C1CCOc2c1ccc(F)c2C(=O)Nc1ccc(F)c(F)c1` [Compound 64, N-(3,4-difluorophenyl)-7-fluoro-4-oxochromane-8-carboxamide], the EC50 was found to be 3.8 µM.
As for `O=C(Nc1ccc(F)c(F)c1)c1cccc2c1OCC[C@@H]2O` [Compound 5, (S)-N-(3,4-difluorophenyl)-4-hydroxychromane-8-carboxamide], the EC50 was 3.9 µM.
With `O=C(N[C@H]1CCOc2c1ccc(F)c2C(=O)Nc1ccc(F)c(F)c1)OCc1ccccn1` [Compound 59, (S)-Pyridin-2-ylmethyl (8-((3,4-difluorophenyl)carbamoyl)-7-fluorochroman-4-yl)carbamate], the EC50 was found to be 5.3 µM.
Take `O=C(N[C@H]1CCOc2c(C(=O)Nc3ccc(F)c(F)c3)cccc21)OCc1ccccn1` [Compound 27, Pyridin-2-ylmethyl-(8-((3,4-difluorophenyl)carbamoyl)chroman-4-yl)carbamate]: the half-maximal effective concentration (EC50) was 2.5 µM.
Same read-out and setting: to `CC(=O)NCCOC(=O)N[C@H]1CCOc2c(C(=O)Nc3ccc(F)c(C)c3)ccc(F)c21` [Compound 146, 2-Acetamidoethyl (S)-(5-fluoro-8-((4-fluoro-3-methylphenyl)carbamoyl)chroman-4-yl)carbamate] belongs 0.61 µM; to `CC[C@@H](C)OC1CCOc2c(C(=O)Nc3ccc(F)c(F)c3)cccc21` (stereo partly drawn) [Compound 14, 4-((R)-sec-butoxy)-N-(3,4-difluorophenyl)chromane-8-carboxamide], 6 µM; to `Cc1cc(NC(=O)c2ccc(F)c3c2OCC[C@@H]3NC(=O)OCCc2ccccn2)ccc1F` [Compound 138, 2-(Pyridin-2-yl)ethyl (S)-(5-fluoro-8-((4-fluoro-3-methylphenyl)carbamoyl)chroman-4-yl)carbamate], 0.6 µM.
Turning to `Cn1ccc(COC(=O)N[C@H]2CCOc3c(C(=O)Nc4ccc(F)c(F)c4)cccc32)n1` [Compound 72, (1-Methyl-1H-pyrazol-3-yl)methyl (S)-(8-((3,4-difluorophenyl)carbamoyl)chroman-4-yl)carbamate], the EC50 worked out at 2 µM.
As to `O=C(Nc1cccc(Cl)c1)c1cccc2c1OCCC2` [Compound 1, N-(3-chlorophenyl)chromane-8-carboxamide], the EC50 is 23 µM.
In the case of `COC(=O)N[C@H]1CCOc2c(C(=O)NCc3cccc(F)c3)cccc21` [Compound 36, methyl (S)-(8-((3-fluorobenzyl)carbamoyl)chroman-4-yl)carbamate], the EC50 came to 22 µM.
As to `O=C(N[C@H]1CCOc2c(C(=O)Nc3ccc(F)c(Cl)c3)ccc(F)c21)OCC(=O)N1CCCC1` [Compound 160, 2-Oxo-2-(pyrrolidin-1-yl)ethyl (S)-(8-((3-chloro-4-fluorophenyl)carbamoyl)-5-fluorochroman-4-yl)carbamate], the EC50 worked out at 0.42 µM.
For the compound `O=C(N[C@H]1CCOc2c(C(=O)Nc3ccc(F)c(Cl)c3)cccc21)OCc1cnccn1` [Compound 112, Pyrazin-2-ylmethyl (S)-(8-((3-chloro-4-fluorophenyl)carbamoyl)chroman-4-yl)carbamate], the 50% effective concentration (EC50) was 0.77 µM.
In the case of `O=C(N[C@H]1CCOc2c(C(=O)Nc3ccc(F)c(F)c3)cccc21)OCC1CCNCC1` [Compound 107, piperidin-4-ylmethyl (S)-(8-((3,4-difluorophenyl)carbamoyl)chroman-4-yl)carbamate], the 50% effective concentration (EC50) was determined as 21 µM.
Turning to `O=C(N[C@@H]1CCOc2c(C(=O)Nc3ccc(F)c(Cl)c3)ccc(F)c21)OCc1ccccn1` [Compound 106, pyridin-2-ylmethyl (R)-(8-((3-chloro-4-fluorophenyl)carbamoyl)-5-fluorochroman-4-yl)carbamate], the concentration for a half-maximal effect (EC50) was found to be 20 µM.
For the compound `O=C(Nc1ccc(F)c(F)c1)c1cccc2c1OCCC2O` (stereo not shown) [Compound 3, N-(3,4-difluorophenyl)-4-hydroxychromane-8-carboxamide], the concentration for a half-maximal effect (EC50) was found to be 3.4 µM.
Turning to `O=C(Nc1ccc(F)c(F)c1)c1cccc2c1OCC[C@@H]2Nc1ncccn1` [Compound 42, (S)-N-(3,4-difluorophenyl)-4-(pyrimidin-2-ylamino) chromane-8-carboxamide], the concentration for a half-maximal effect (EC50) was 3.4 µM.
In the case of `O=C(Nc1ccc(F)c(F)c1)c1ccc(F)c2c1OCCC2=O` [Compound 60, N-(3,4-difluorophenyl)-5-fluoro-4-oxochromane-8-carboxamide], the concentration giving a half-maximal response (EC50) was determined as 3.9 µM.
For `COC(=O)N[C@H]1CCOc2c(C(=O)Nc3ccc(F)c(C(F)(F)F)c3)cccc21` [Compound 44, Methyl (S)-(8-((4-fluoro-3-(trifluoromethyl)phenyl)carbamoyl)chroman-4-yl)carbamate], the EC50 stood at 3.5 µM.
Turning to `CNC(=O)N[C@@H]1CCOc2c(C(=O)Nc3ccc(F)c(F)c3)ccc(F)c21` [Compound 41, (R)-N-(3,4-difluorophenyl)-5-fluoro-4-(3-methylureido) chromane-8-carboxamide], the EC50 turned out to be 23 µM.
Consider `O=C(N[C@H]1CCOc2c(C(=O)Nc3ccc(F)c(F)c3)cccc21)OCC1CCNC1` (single isomer, unassigned) [Compound 108], for which the EC50 is 21 µM.
For `O=C(N[C@@H]1CCSc2c(C(=O)Nc3ccc(F)c(Cl)c3)ccc(F)c21)OCc1ccccn1` [Compound 173], the 50% effective concentration (EC50) stood at 8.7 µM.
Consider `COC(=O)N[C@H]1CCOc2c(C(=O)Nc3ccc(F)cc3)cccc21` [Compound 33, Methyl (S)-(8-((4-fluorophenyl)carbamoyl)chroman-4-yl)carbamate], for which the EC50 came to 3.5 µM.
Consider `Cc1cc(NC(=O)c2ccc(F)c3c2OCC[C@@H]3NC(=O)OCCN2CCCC2=O)ccc1F` [Compound 143, 2-(2-Oxopyrrolidin-1-yl)ethyl (S)-(5-fluoro-8-((4-fluoro-3-methylphenyl)carbamoyl)chroman-4-yl)carbamate], for which the EC50 was found to be 1.2 µM.
With `CNC(=O)N[C@H]1CCOc2c1ccc(F)c2C(=O)Nc1ccc(F)c(F)c1` [Compound 48, (S)-N-(3,4-difluorophenyl)-7-fluoro-4-(3-methylureido) chromane-8-carboxamide], the EC50 is 6.7 µM.
On to `O=C(N[C@H]1CCOc2c(C(=O)Nc3ccc(F)c(F)c3)cccc21)OCC1CCCCN1` (single isomer, unassigned) [Compound 85], for which the EC50 came to 19 µM.

Still in this assay, the particulars now being: Hepatitis B virus, HepDE19, 168 h, read-out: DE-19 bDNA EC50, HepDE19 cells, 7 day incubation, rcDNA by Quantigene 2.0 bDNA assay.
For the compound `O=C(N[C@H]1CCSc2c(C(=O)Nc3ccc(F)c(F)c3)ccc(F)c21)OCc1ccccn1` [Compound 169, Pyridin-2-ylmethyl (S)-(8-((3,4-difluorophenyl)carbamoyl)-5-fluorothiochroman-4-yl)carbamate hydrochloride], the EC50 was 5.3 µM.
For the compound `CNC(=O)N[C@H]1CCOc2c(C(=O)Nc3ccc(F)c(F)c3)cccc21` [Compound 13, (S)—N-(3,4-difluorophenyl)-4-(3-methylureido) chromane-8-carboxamide], the EC50 worked out at 2.3 µM.
For the compound `COC(=O)N[C@H]1CCOc2c1ccc(F)c2C(=O)Nc1ccc(F)c(Cl)c1` [Compound 74, (S)-Methyl (8-((3-chloro-4-fluorophenyl)carbamoyl)-7-fluorochroman-4-yl)carbamate], the concentration for a half-maximal effect (EC50) worked out at 1.9 µM.
In the case of `Cc1cc(NC(=O)c2ccc(F)c3c2OCC[C@@H]3NC(=O)NCc2ccccn2)ccc1F` [Compound 150, (S)-5-Fluoro-N-(4-fluoro-3-methylphenyl)-4-(3-(pyridin-2-ylmethyl)ureido)chromane-8-carboxamide], the EC50 stood at 1.2 µM.
For the compound `CS(=O)(=O)N1CCC(COC(=O)N[C@H]2CCOc3c(C(=O)Nc4ccc(F)c(Cl)c4)ccc(F)c32)CC1` [Compound 162, (1-(Methylsulfonyl)piperidin-4-yl)methyl (S)-(8-((3-chloro-4-fluorophenyl)carbamoyl)-5-fluorochroman-4-yl)carbamate], the EC50 came to 6.1 µM.
The same measure, in the same setting: under `CC(=O)N1CCC(COC(=O)N[C@H]2CCOc3c(C(=O)Nc4ccc(F)c(F)c4)cccc32)C1` (single isomer, unassigned) [Compound 144] stands 5.4 µM.

Staying with this assay, now noted: read-out: DE-19 bDNA EC50; HepDE19 cells, 7 day incubation, rcDNA by Quantigene 2.0 bDNA assay.
On to `CC(=O)N1CCC(COC(=O)N[C@H]2CCOc3c(C(=O)Nc4ccc(F)c(F)c4)cccc32)C1` (single isomer, unassigned) [Compound 145], for which the EC50 is 7 µM.
